# Test results published in ChEMBL document CHEMBL3885881, “DrugMatrix”.
# Species: Rattus norvegicus
# Assay: DrugMatrix - Regimen: Daily Repeat
# Assay type: toxicity, organism-based, Sprague-Dawley
# Parameters: regimen Daily Repeat, gender Male, age 6-8 weeks
# Settings: in vivo, po, route oral GAVAGE, vehicle .5 % CMC; for ABSOLUTE BASOPHIL / ABSOLUTE EOSINOPHIL / ABSOLUTE LYMPHOCYTE / ABSOLUTE MONOCYTE / ABSOLUTE SEGMENTED NEUTROPHIL / BASOPHIL / EOSINOPHIL / ERYTHROCYTE COUNT / HEMATOCRIT / HEMOGLOBIN / LEUKOCYTE COUNT / LYMPHOCYTE / MEAN CORPUSCULAR HEMOGLOBIN / MEAN CORPUSCULAR HEMOGLOBIN CONCENTRATION / MEAN CORPUSCULAR VOLUME / MONOCYTE / NEUTROPHIL / NUCLEATED RED BLOOD CELLS / PLATELET COUNT: tissue Blood; for ALANINE AMINOTRANSFERASE / ALBUMIN / ALKALINE PHOSPHATASE / ASPARTATE AMINOTRANSFERASE / BLOOD UREA NITROGEN / CARBON DIOXIDE / CHLORIDE / CHOLESTEROL / CREATINE PHOSPHOKINASE / CREATININE / GLUCOSE / LACTATE DEHYDROGENASE / LIPASE / PHOSPHORUS / POTASSIUM / SODIUM / TOTAL BILIRUBIN / TOTAL PROTEIN / URIC ACID: tissue Plasma
# [1] = 0 mg/kg, 72 h, dose level Control, time 3 day
# [2] = 0 mg/kg, 120 h, dose level Control, time 5 day
# [3] = 16 mg/kg, 72 h, dose level Low, time 3 day
compound,measurement,setting,value
CCOC(=O)OC(C)OC1=C(C(=O)Nc2ccccn2)N(C)S(=O)(=O)c2ccccc21 (centres undefined) [AMPIROXICAM],ABSOLUTE BASOPHIL,[1],0 CELLS/uL
same,ABSOLUTE EOSINOPHIL,[1],15.17 CELLS/uL
same,ABSOLUTE LYMPHOCYTE,[1],10149.83 CELLS/uL
same,ABSOLUTE MONOCYTE,[1],193.33 CELLS/uL
same,ABSOLUTE SEGMENTED NEUTROPHIL,[1],1575 CELLS/uL
same,BASOPHIL,[1],0%
same,EOSINOPHIL,[1],0.17%
same,ERYTHROCYTE COUNT,[1],5.53 x10E6/uL
same,HEMATOCRIT,[1],34.7%
same,HEMOGLOBIN,[1],12.78 G/DL
same,LEUKOCYTE COUNT,[1],11.93 x10E3/uL
same,LYMPHOCYTE,[1],85.5%
same,MEAN CORPUSCULAR HEMOGLOBIN,[1],23.15 pg
same,MEAN CORPUSCULAR HEMOGLOBIN CONCENTRATION,[1],36.9 G/DL
same,MEAN CORPUSCULAR VOLUME,[1],62.82 fL
same,MONOCYTE,[1],1.5%
same,NEUTROPHIL,[1],12.83%
same,NUCLEATED RED BLOOD CELLS,[1],0.5 /100WBC
same,PLATELET COUNT,[1],994.17 x10E3/uL
same,ALANINE AMINOTRANSFERASE,[1],48.17 u/L
same,ALBUMIN,[1],4.37 G/DL
same,ALKALINE PHOSPHATASE,[1],436.5 u/L
same,ASPARTATE AMINOTRANSFERASE,[1],83.17 u/L
same,BLOOD UREA NITROGEN,[1],14.67 mg/dL
same,CARBON DIOXIDE,[1],30.83 mmol/L
same,CHLORIDE,[1],99.17 MEQ/L
same,CHOLESTEROL,[1],86.33 mg/dL
same,CREATINE PHOSPHOKINASE,[1],243.33 u/L
same,CREATININE,[1],0.25 mg/dL
same,GLUCOSE,[1],158 mg/dL
same,LACTATE DEHYDROGENASE,[1],262.33 u/L
same,LIPASE,[1],11 u/L
same,PHOSPHORUS,[1],12.07 mg/dL
same,POTASSIUM,[1],6.52 MEQ/L
same,SODIUM,[1],142.45 MEQ/L
same,TOTAL BILIRUBIN,[1],0.17 mg/dL
same,TOTAL PROTEIN,[1],6.25 G/DL
same,URIC ACID,[1],1.42 mg/dL
same,ABSOLUTE BASOPHIL,[2],0 CELLS/uL
same,ABSOLUTE EOSINOPHIL,[2],0 CELLS/uL
same,ABSOLUTE LYMPHOCYTE,[2],10076.67 CELLS/uL
same,ABSOLUTE MONOCYTE,[2],124 CELLS/uL
same,ABSOLUTE SEGMENTED NEUTROPHIL,[2],966 CELLS/uL
same,BASOPHIL,[2],0%
same,EOSINOPHIL,[2],0%
same,ERYTHROCYTE COUNT,[2],5.57 x10E6/uL
same,HEMATOCRIT,[2],33.37%
same,HEMOGLOBIN,[2],12.73 G/DL
same,LEUKOCYTE COUNT,[2],11.17 x10E3/uL
same,LYMPHOCYTE,[2],90.33%
same,MEAN CORPUSCULAR HEMOGLOBIN,[2],22.9 pg
same,MEAN CORPUSCULAR HEMOGLOBIN CONCENTRATION,[2],38.18 G/DL
same,MEAN CORPUSCULAR VOLUME,[2],59.97 fL
same,MONOCYTE,[2],1%
same,NEUTROPHIL,[2],8.67%
same,NUCLEATED RED BLOOD CELLS,[2],0 /100WBC
same,PLATELET COUNT,[2],1078 x10E3/uL
same,ALANINE AMINOTRANSFERASE,[2],37.17 u/L
same,ALBUMIN,[2],4.2 G/DL
same,ALKALINE PHOSPHATASE,[2],322.17 u/L
same,ASPARTATE AMINOTRANSFERASE,[2],67.67 u/L
same,BLOOD UREA NITROGEN,[2],14 mg/dL
same,CARBON DIOXIDE,[2],27.67 mmol/L
same,CHLORIDE,[2],102.17 MEQ/L
same,CHOLESTEROL,[2],67.67 mg/dL
same,CREATINE PHOSPHOKINASE,[2],171.83 u/L
same,CREATININE,[2],0.27 mg/dL
same,GLUCOSE,[2],172 mg/dL
same,LACTATE DEHYDROGENASE,[2],85.33 u/L
same,LIPASE,[2],8.67 u/L
same,PHOSPHORUS,[2],12 mg/dL
same,POTASSIUM,[2],6.09 MEQ/L
same,SODIUM,[2],144.82 MEQ/L
same,TOTAL BILIRUBIN,[2],0.13 mg/dL
same,TOTAL PROTEIN,[2],6.07 G/DL
same,URIC ACID,[2],2.13 mg/dL
same,ABSOLUTE BASOPHIL,[3],0 CELLS/uL
same,ABSOLUTE EOSINOPHIL,[3],0 CELLS/uL
same,ABSOLUTE LYMPHOCYTE,[3],13036.33 CELLS/uL
same,ABSOLUTE MONOCYTE,[3],91.33 CELLS/uL
same,ABSOLUTE SEGMENTED NEUTROPHIL,[3],1372.33 CELLS/uL
same,BASOPHIL,[3],0%
same,EOSINOPHIL,[3],0%
same,ERYTHROCYTE COUNT,[3],5.36 x10E6/uL
same,HEMATOCRIT,[3],33.57%
same,HEMOGLOBIN,[3],12.5 G/DL
same,LEUKOCYTE COUNT,[3],14.5 x10E3/uL
same,LYMPHOCYTE,[3],89.33%
same,MEAN CORPUSCULAR HEMOGLOBIN,[3],23.33 pg
same,MEAN CORPUSCULAR HEMOGLOBIN CONCENTRATION,[3],37.23 G/DL
same,MEAN CORPUSCULAR VOLUME,[3],62.67 fL
same,MONOCYTE,[3],0.67%
same,NEUTROPHIL,[3],10%
same,NUCLEATED RED BLOOD CELLS,[3],0 /100WBC
same,PLATELET COUNT,[3],1061.33 x10E3/uL
same,ALANINE AMINOTRANSFERASE,[3],57.33 u/L
same,ALBUMIN,[3],4.3 G/DL
same,ALKALINE PHOSPHATASE,[3],431 u/L
same,ASPARTATE AMINOTRANSFERASE,[3],100.67 u/L
same,BLOOD UREA NITROGEN,[3],12.67 mg/dL
same,CARBON DIOXIDE,[3],32.33 mmol/L
same,CHLORIDE,[3],101.33 MEQ/L
same,CHOLESTEROL,[3],86.33 mg/dL
same,CREATINE PHOSPHOKINASE,[3],214.33 u/L
same,CREATININE,[3],0.25 mg/dL
same,GLUCOSE,[3],155.33 mg/dL
same,LACTATE DEHYDROGENASE,[3],113.33 u/L
same,LIPASE,[3],11.67 u/L
same,PHOSPHORUS,[3],11.83 mg/dL
same,POTASSIUM,[3],6.74 MEQ/L
same,SODIUM,[3],145.43 MEQ/L
same,TOTAL BILIRUBIN,[3],0.13 mg/dL
same,TOTAL PROTEIN,[3],6.13 G/DL
same,URIC ACID,[3],1.73 mg/dL
